# From ChEMBL document CHEMBL2074340, “Molecular characterization of human and rat organic anion transporter OATP-D” (Am J Physiol Renal Physiol, 2003)
# T1: Solute carrier organic anion transporter family member 3A1 (SLCO3A1/OATP3A1) (Homo sapiens, UniProt Q9UIG8)
# T1 sequence (Q9UIG8 whole entry): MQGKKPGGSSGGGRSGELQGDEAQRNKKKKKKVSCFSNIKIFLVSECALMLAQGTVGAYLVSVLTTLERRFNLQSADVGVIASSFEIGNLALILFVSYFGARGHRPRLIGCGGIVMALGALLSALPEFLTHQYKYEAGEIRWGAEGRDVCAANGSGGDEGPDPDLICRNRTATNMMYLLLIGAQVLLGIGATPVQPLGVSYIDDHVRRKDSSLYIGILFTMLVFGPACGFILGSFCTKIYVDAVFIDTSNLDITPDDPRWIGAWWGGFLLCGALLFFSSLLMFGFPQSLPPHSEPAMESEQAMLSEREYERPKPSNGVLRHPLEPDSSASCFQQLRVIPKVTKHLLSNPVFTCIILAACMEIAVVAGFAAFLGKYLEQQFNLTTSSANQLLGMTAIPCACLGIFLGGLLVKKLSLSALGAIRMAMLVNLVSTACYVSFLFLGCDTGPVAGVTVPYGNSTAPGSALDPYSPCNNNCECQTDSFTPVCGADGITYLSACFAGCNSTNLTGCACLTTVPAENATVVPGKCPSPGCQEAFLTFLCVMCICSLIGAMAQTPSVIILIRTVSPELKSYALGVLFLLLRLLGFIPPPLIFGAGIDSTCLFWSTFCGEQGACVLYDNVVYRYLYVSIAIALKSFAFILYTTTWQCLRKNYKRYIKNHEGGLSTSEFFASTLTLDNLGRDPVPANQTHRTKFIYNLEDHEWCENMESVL
# T2: Solute carrier organic anion transporter family member 3A1 (Homo sapiens, UniProt Q9UIG8)
# T2 sequence (Q9UIG8 whole entry): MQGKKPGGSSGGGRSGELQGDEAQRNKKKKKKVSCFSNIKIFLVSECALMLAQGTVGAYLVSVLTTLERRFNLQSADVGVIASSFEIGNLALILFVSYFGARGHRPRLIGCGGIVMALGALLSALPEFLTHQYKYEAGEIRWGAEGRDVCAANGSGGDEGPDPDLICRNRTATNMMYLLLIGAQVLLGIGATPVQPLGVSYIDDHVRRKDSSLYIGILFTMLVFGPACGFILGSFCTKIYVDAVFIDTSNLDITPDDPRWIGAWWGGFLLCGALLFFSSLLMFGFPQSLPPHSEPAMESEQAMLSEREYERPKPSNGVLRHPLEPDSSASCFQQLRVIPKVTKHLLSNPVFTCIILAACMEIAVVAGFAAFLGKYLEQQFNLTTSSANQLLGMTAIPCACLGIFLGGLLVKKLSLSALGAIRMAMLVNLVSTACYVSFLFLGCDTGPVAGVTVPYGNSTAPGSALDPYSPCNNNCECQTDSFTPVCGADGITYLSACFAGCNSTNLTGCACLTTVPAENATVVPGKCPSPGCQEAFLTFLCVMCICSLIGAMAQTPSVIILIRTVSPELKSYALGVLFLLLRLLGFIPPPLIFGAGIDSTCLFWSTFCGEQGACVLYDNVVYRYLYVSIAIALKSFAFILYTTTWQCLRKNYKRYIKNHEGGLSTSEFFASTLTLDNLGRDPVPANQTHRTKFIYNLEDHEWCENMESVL
# T3: Solute carrier organic anion transporter family member 3A1 (Rattus norvegicus, UniProt Q99N02)
# T3 sequence (Q99N02 whole entry): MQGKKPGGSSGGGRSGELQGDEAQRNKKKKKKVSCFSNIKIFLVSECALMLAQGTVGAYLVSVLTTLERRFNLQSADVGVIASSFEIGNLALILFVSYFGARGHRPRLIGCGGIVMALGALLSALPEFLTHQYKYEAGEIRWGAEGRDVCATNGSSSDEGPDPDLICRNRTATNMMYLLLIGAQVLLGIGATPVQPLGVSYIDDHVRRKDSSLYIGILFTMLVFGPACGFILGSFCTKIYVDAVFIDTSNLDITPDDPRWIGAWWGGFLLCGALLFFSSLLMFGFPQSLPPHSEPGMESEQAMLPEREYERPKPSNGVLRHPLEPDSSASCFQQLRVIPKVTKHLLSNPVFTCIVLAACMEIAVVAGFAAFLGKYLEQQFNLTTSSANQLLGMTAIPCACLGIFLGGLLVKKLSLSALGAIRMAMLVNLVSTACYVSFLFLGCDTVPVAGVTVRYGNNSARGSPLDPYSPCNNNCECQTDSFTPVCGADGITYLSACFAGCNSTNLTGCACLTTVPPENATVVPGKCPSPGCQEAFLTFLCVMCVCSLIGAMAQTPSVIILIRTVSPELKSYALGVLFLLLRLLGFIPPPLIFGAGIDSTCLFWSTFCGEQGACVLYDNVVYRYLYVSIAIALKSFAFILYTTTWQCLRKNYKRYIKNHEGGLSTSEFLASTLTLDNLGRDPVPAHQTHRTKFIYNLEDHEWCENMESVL
# Columns and labels:
# [1] = target: T1, Solute carrier organic anion transporter family member 3A1 (SLCO3A1/OATP3A1); test: TP_TRANSPORTER: inhibition of PGE2 uptake (PGE2: 0.015 uM) by P-aminohippuric acid at 0.15uM in Xenopus laevis oocytes; format: functional, cell-based, Oocyte; parameters: scale not given: the % may be the effect or the level left; conditions: Xenopus laevis oocytes expressing OATP3A1 (SLCO3A1), probe PGE2, read-out: Activity
# [2] = target: T2, Solute carrier organic anion transporter family member 3A1; test: (§1) TP_TRANSPORTER: uptake in Xenopus laevis oocytes; format: functional, cell-based; conditions: oocyte
# [3] = target: T2, Solute carrier organic anion transporter family member 3A1; test: TP_TRANSPORTER: inhibition of PGE2 uptake (PGE2: 0.015 uM) by […] at 0.15uM in Xenopus laevis oocytes; format: functional, cell-based; parameters: scale not given: the % may be the effect or the level left; conditions: oocyte
# [4] = target: T3, Solute carrier organic anion transporter family member 3A1; test: as §1; format: functional, cell-based; conditions: oocyte
# [5] = target: T1, Solute carrier organic anion transporter family member 3A1 (SLCO3A1/OATP3A1); test: TP_TRANSPORTER: inhibition of PGE2 uptake (PGE2: 0.015 uM) by Prostaglandin E1 at 0.15uM in Xenopus laevis oocytes; format: functional, cell-based, Oocyte; parameters: scale not given: the % may be the effect or the level left; conditions: Xenopus laevis oocytes expressing OATP3A1 (SLCO3A1), probe PGE2, read-out: Activity
# [6] = target: T1, Solute carrier organic anion transporter family member 3A1 (SLCO3A1/OATP3A1); test: TP_TRANSPORTER: inhibition of PGE2 uptake (PGE2: 0.015 uM) by Prostaglandin D2 at 0.15uM in Xenopus laevis oocytes; format: functional, cell-based, Oocyte; parameters: scale not given: the % may be the effect or the level left; conditions: Xenopus laevis oocytes expressing OATP3A1 (SLCO3A1), probe PGE2, read-out: Activity
# [7] = target: T2, Solute carrier organic anion transporter family member 3A1; test: TP_TRANSPORTER: inhibition of PGE2 uptake (PGE2: 0.015 uM) by Prostaglandin F2alpha at 0.15uM in Xenopus laevis oocytes; format: functional, cell-based; parameters: scale not given: the % may be the effect or the level left; conditions: oocyte
# [8] = substrate: CC/C=C\C[C@H](O)/C=C/[C@H]1[C@H](O)CC(=O)[C@@H]1C/C=C\CCCC(=O)O; test: as §1; format: functional, cell-based, Oocyte
# [9] = substrate: CCCCC[C@H](O)/C=C/[C@H]1[C@H](O)CC(=O)[C@@H]1CCCCCCC(=O)O; test: as §1; format: functional, cell-based, Oocyte
Molecule,Activity [2],Activity [4],other results
Nc1ccc(C(=O)NCC(=O)O)cc1 [AMINOHIPPURIC ACID],,,activity at 0.15 µM [1]: 30%
CC#CCC(C)[C@H](O)/C=C/[C@@H]1[C@H]2C/C(=C/CCCC(=O)O)C[C@H]2C[C@H]1O (stereo not given in full) [ILOPROST],is not a substrate [-],,
PROSTAGLANDIN E4,,,Activity [3]: 0%
CN(Cc1cnc2nc(N)nc(N)c2n1)c1ccc(C(=O)N[C@@H](CCC(=O)O)C(=O)O)cc1 [METHOTREXATE],is not a substrate [-],,
PROSTAGLANDIN E5,,substrate [+],
CCCCC[C@H](O)/C=C/[C@H]1[C@H](O)CC(=O)[C@@H]1CCCCCCC(=O)O [ALPROSTADIL],,substrate [+],activity at 0.15 µM [5]: 0%
CCCCC[C@H](O)/C=C/[C@H]1OC(O)C[C@H](O)[C@@H]1C/C=C\CCCC(=O)O (stereo not given in full) [THROMBOXANE B2],is not a substrate [-],,
CCCCC[C@H](O)/C=C/[C@H]1C(=O)C[C@H](O)[C@@H]1C/C=C\CCCC(=O)O [PROSTAGLANDIN D2],is not a substrate [-],,activity at 0.15 µM [6]: 30%
CCCCC[C@H](O)/C=C/[C@@H]1[C@@H](C/C=C\CCCC(=O)O)[C@@H](O)C[C@H]1O [DINOPROST],substrate [+],substrate [+],Activity [7]: 0%
Solute carrier organic anion transporter family member 3A1 (Homo sapiens) (protein) MQGKKPGGSSGGGRSGELQGDEAQRNKKKKKKVSCFSNIKIFLVSECALMLAQGTVGAYLVSVLTTLERRFNLQSADVGVIASSFEIGNLALILFVSYFGARGHRPRLIGCGGIVMALGALLSALPEFLTHQYKYEAGEIRWGAEGRDVCAANGSGGDEGPDPDLICRNRTATNMMYLLLIGAQVLLGIGATPVQPLGVSYIDDHVRRKDSSLYIGILFTMLVFGPACGFILGSFCTKIYVDAVFIDTSNLDITPDDPRWIGAWWGGFLLCGALLFFSSLLMFGFPQSLPPHSEPAMESEQAMLSEREYERPKPSNGVLRHPLEPDSSASCFQQLRVIPKVTKHLLSNPVFTCIILAACMEIAVVAGFAAFLGKYLEQQFNLTTSSANQLLGMTAIPCACLGIFLGGLLVKKLSLSALGAIRMAMLVNLVSTACYVSFLFLGCDTGPVAGVTVPYGNSTAPGSALDPYSPCNNNCECQTDSFTPVCGADGITYLSACFAGCNSTNLTGCACLTTVPAENATVVPGKCPSPGCQEAFLTFLCVMCICSLIGAMAQTPSVIILIRTVSPELKSYALGVLFLLLRLLGFIPPPLIFGAGIDSTCLFWSTFCGEQGACVLYDNVVYRYLYVSIAIALKSFAFILYTTTWQCLRKNYKRYIKNHEGGLSTSEFFASTLTLDNLGRDPVPANQTHRTKFIYNLEDHEWCENMESVL,,,Km [8]: 0.0555 µM; Km [9]: 0.0485 µM
